Results reported in the NIST ThermoML archive (doi:10.1021/je201334p).

Assays:
[1] = refractive index (Na D-line) (dimensionless); xn = mol fraction of the nth substance listed; conditions: 101 kPa, Liquid, Standard Abbe refractometry
[2] = xn = mol fraction of the nth substance listed; conditions: 101 kPa, Liquid; for speed of sound: Sing-around technique in a fixed-path interferometer; for mass density: Vibrating tube method

CCCC[n+]1cccc(C)c1.O=S(=O)([O-])C(F)(F)F [1-butyl-3-methylpyridinium trifluoromethanesulfonate] + O
Conditions | mass density, 288.15 K [kg/m3] | mass density, 298.15 K [kg/m3] | mass density, 308.15 K [kg/m3] | refractive index, 288.15 K | refractive index, 298.15 K | refractive index, 308.15 K | speed of sound, 288.15 K [m/s] | speed of sound, 298.15 K [m/s] | speed of sound, 308.15 K [m/s]
[1], x2 = 0 | – | – | – | 1.46446 | 1.46155 | 1.45868 | – | – | –
[1], x2 = 0.0794 | – | – | – | 1.46358 | 1.46073 | 1.45784 | – | – | –
[1], x2 = 0.1517 | – | – | – | 1.46266 | 1.45982 | 1.45694 | – | – | –
[1], x2 = 0.2502 | – | – | – | 1.46111 | 1.45822 | 1.45535 | – | – | –
[1], x2 = 0.3515 | – | – | – | 1.4591 | 1.45623 | 1.45331 | – | – | –
[1], x2 = 0.4528 | – | – | – | 1.45651 | 1.45363 | 1.45069 | – | – | –
[1], x2 = 0.5628 | – | – | – | 1.45257 | 1.44968 | 1.44673 | – | – | –
[1], x2 = 0.6561 | – | – | – | 1.4477 | 1.44482 | 1.44183 | – | – | –
[1], x2 = 0.7494 | – | – | – | 1.44008 | 1.43724 | 1.43429 | – | – | –
[1], x2 = 0.8383 | – | – | – | 1.42747 | 1.42474 | 1.42192 | – | – | –
[1], x2 = 0.9201 | – | – | – | 1.40357 | 1.40118 | 1.39863 | – | – | –
[1], x2 = 0.9603 | – | – | – | 1.37998 | 1.37782 | 1.3757 | – | – | –
[2], x2 = 0 | 1287.07 | 1279.41 | 1271.8 | – | – | – | 1436.1 | 1412.3 | 1389.6
[2], x2 = 0.0794 | 1285.23 | 1277.62 | 1269.98 | – | – | – | 1439.2 | 1415.5 | 1392.5
[2], x2 = 0.1517 | 1283.28 | 1275.63 | 1267.96 | – | – | – | 1442.3 | 1418.7 | 1395.8
[2], x2 = 0.2502 | 1279.99 | 1272.28 | 1264.58 | – | – | – | 1447.7 | 1424.3 | 1401.5
[2], x2 = 0.3515 | 1275.76 | 1268 | 1260.24 | – | – | – | 1454.3 | 1431.2 | 1408.5
[2], x2 = 0.4528 | 1270.21 | 1262.4 | 1254.58 | – | – | – | 1463 | 1440 | 1417.4
[2], x2 = 0.5628 | 1261.9 | 1254.01 | 1246.08 | – | – | – | 1475.6 | 1452.9 | 1430.3
[2], x2 = 0.6561 | 1251.55 | 1243.59 | 1235.57 | – | – | – | 1489.9 | 1467.6 | 1445.3
[2], x2 = 0.7494 | 1235.48 | 1227.52 | 1219.46 | – | – | – | 1508.6 | 1487.4 | 1465.8
[2], x2 = 0.8383 | 1208.29 | 1200.56 | 1192.69 | – | – | – | 1530.4 | 1512.5 | 1493.4
[2], x2 = 0.9201 | 1155.76 | 1149.07 | 1142.04 | – | – | – | 1548.9 | 1540.1 | 1528.6
[2], x2 = 0.9603 | 1103.57 | 1098.18 | 1092.3 | – | – | – | 1553.2 | 1553.5 | 1550.4
